In publication PMC8260592 (Scientific Reports, 2021):
“Also recorded” adds a separate entry of the source.

What was measured:
BACE-1 = target: T1, BACE-1 (Homo sapiens, UniProt P56817); assay: BACE-1 activity detection kit (fluorescence); assay type: biochemical; settings: read-out: Residual activity at 10 µM (%) BACE-1
T1 construct: purchased Sigma-Aldrich

BChE (equine serum) = target: T2, BChE (equine serum) (Equus caballus, UniProt P81908); assay: biochemical
T2 construct: BChE (equine serum); purchased Sigma-Aldrich; host or cells: equine serum
T2 sequence (P81908 whole entry): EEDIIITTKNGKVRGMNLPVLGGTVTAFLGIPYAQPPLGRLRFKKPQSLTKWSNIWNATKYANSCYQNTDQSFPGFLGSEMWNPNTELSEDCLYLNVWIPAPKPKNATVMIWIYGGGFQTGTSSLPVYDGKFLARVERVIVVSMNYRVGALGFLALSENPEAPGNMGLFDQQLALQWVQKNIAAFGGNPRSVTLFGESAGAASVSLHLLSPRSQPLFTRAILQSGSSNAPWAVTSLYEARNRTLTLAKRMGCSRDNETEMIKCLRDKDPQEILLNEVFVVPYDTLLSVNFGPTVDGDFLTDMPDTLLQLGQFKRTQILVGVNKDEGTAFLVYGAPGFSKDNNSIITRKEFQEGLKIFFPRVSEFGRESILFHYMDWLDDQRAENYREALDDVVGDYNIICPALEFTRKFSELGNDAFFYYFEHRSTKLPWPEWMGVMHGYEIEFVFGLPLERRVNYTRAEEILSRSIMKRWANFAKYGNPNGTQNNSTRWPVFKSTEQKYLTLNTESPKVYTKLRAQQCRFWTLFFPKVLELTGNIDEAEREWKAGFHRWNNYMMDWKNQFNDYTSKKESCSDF
Experimental: (§1) AChE and BChE inhibitory activities were measured after preincubating enzymes with inhibitors for 15 min before adding substrates (ATCI and BTCI, respectively) and DTNB. AChE activities were assayed as previously described, with slight modification[21],[22]. […] MAO-A and MAO-B activities were determined using a continuous spectrophotometric method, as described previously[23],[24]. […] Reaction rates are expressed as changes in absorbance per min. […]

[1] = target: AChE (Type VI-S from Electrophorus electricus) (Electrophorus electricus, UniProt O42275); assay: biochemical
Chain of AChE (Type VI-S from Electrophorus electricus) (O42275 24-633): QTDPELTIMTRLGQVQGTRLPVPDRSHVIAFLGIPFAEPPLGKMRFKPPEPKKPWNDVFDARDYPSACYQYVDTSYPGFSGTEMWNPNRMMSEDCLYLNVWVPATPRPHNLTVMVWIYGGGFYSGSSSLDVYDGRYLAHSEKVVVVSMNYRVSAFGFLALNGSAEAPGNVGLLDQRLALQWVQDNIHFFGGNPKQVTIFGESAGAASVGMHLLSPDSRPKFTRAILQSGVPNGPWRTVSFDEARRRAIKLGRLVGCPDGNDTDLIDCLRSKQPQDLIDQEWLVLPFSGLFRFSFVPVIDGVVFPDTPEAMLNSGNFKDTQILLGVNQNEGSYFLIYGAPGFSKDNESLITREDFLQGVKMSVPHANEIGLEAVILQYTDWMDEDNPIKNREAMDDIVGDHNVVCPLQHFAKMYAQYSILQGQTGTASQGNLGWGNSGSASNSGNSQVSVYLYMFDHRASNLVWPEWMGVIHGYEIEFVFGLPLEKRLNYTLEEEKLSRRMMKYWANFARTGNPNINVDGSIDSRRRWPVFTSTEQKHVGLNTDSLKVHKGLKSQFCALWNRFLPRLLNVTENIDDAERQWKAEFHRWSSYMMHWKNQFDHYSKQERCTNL
Experimental: as §1

[2] = test system: human acute promyelocytic leukemia (HL-60) cells; assay: Cytotoxicity test, CCK-8 assay; settings: 50 µM, 24 h, CCK-8
Experimental: (§2) Madin-Darby canine kidney (MDCK) cells and human acute promyelocytic leukemia (HL-60) cells were obtained from the Korean Cell Line Bank (Seoul, Korea). […] Cultures were maintained at 37 °C under 5% CO2, and media were changed every two days.
(§3) Cell viabilities were determined using the CCK-8 assay. Briefly, MDCK cells or HL-60 cells were resuspended at 1 × 10^5 or 3 × 10^5 cells/mL and suspensions (100 µL) were added to wells of a 96-well plate and incubated in 5% CO2 atmosphere at 37 °C for 24 h. After incubation, 100 µL of each medium was treated with compounds at 1, 3, 10, 30, or 50 µM and incubated in 5% CO2 at 37 °C for 24 h. CCK-8 (10 µL/well) was then added to 100 µL aliquots from each cell and incubated 2–4 h. Absorbances were measured at 450 nm using a microplate reader (Versamax, Molecular Devices, San Jose, CA, USA).
(§4) Both cell lines were treated with each compound (at 1, 3, 10, 30, or 50 µM) for 24 h. Culture supernatants were then removed and CCK-8 was added. […] Data are expressed as the means ± SDs of triplicate experiments.

[3] = test system: Madin-Darby canine kidney (MDCK) cells; assay: Cytotoxicity test, CCK-8 assay; settings: 50 µM, 24 h, CCK-8
Experimental: as §2, §3, §4

MAO-B [4] = settings: rat brain mitochondrial fractions; cited from earlier work
AChE [5] = settings: ref 43; cited from earlier work
AChE [6] = target: T3, AChE (Electrophorus electricus, UniProt O42275); assay: Kinetics of AChE inhibition (Lineweaver-Burk and secondary plots); assay type: biochemical
T3 sequence (O42275 24-633): as above
Experimental: (§5) Inhibitory patterns and Ki values were determined using Lineweaver–Burk (LB) plots and secondary plots of LB slopes.
Substrate concentrations ranged from 0.05 to 1.0 mM. […] Initial reaction rates are expressed as increases in absorbance per min.

AChE [7] = target: T3, AChE; assay: Reversibility of AChE inhibition by dialysis; assay type: biochemical
Experimental: (§6) After preincubating three compounds or reference inhibitors with enzymes for 15 min, residual activities of undialyzed (AU) and dialyzed (AD) samples were expressed as percentages of those of non-inhibitor treated controls. Reversibilities were assessed using AU and AD values and compared with those of reference compounds.
(§7) After preincubating the compounds with enzymes for 15 min, the mixtures were dialyzed for 6 h with two buffer changes. Results are the averages of duplicate or triplicate experiments.

MAO-B [8] = target: T4, MAO-B (Homo sapiens, UniProt P27338); assay: biochemical
T4 construct: purchased Sigma-Aldrich
T4 sequence (P27338 1-520): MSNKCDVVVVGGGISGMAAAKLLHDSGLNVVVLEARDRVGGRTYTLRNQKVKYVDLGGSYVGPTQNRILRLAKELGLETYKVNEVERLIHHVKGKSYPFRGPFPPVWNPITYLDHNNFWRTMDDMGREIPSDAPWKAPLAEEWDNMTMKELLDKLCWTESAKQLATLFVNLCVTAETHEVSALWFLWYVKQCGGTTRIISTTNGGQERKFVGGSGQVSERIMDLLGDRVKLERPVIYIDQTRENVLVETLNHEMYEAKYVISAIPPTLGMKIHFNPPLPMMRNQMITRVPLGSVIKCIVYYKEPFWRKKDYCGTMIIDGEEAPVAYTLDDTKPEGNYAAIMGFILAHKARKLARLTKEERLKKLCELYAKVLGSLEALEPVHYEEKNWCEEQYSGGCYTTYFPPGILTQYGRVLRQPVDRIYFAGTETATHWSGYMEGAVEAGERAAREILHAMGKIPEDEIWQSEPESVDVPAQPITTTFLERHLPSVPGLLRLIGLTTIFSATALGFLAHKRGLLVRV
Experimental: (§8) AChE and BChE inhibitory activities were measured after preincubating enzymes with inhibitors for 15 min before adding substrates (ATCI and BTCI, respectively) and DTNB. AChE activities were assayed as previously described, with slight modification[21],[22]. […] MAO-A and MAO-B activities were determined using a continuous spectrophotometric method, as described previously[23],[24]. […] Reaction rates are expressed as changes in absorbance per min.
as §5

Recombinant human MAO-A = target: T5, Recombinant human MAO-A (Homo sapiens, UniProt P21397); assay: biochemical
T5 construct: purchased Sigma-Aldrich
T5 sequence (P21397 1-527): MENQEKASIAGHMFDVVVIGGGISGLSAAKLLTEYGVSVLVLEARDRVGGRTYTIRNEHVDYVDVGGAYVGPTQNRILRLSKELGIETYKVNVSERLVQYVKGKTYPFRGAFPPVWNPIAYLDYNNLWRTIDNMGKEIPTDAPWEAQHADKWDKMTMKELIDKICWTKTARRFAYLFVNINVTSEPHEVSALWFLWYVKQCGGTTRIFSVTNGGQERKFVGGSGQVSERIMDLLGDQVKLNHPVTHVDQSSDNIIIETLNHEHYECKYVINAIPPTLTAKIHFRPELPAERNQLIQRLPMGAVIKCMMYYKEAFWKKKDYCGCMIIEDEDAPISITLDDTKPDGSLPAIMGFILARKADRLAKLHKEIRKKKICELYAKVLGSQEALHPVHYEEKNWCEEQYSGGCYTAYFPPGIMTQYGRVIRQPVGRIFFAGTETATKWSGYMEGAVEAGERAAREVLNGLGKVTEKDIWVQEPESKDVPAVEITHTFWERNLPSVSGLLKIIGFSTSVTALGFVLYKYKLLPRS
Experimental: as §8, §5

MAO-B [9] = target: T4, MAO-B; assay: Reversibility of MAO-B inhibition by dialysis; assay type: biochemical
Experimental: as §6, §7

MAO-B [10] = target: T4, MAO-B; assay: Kinetics of MAO-B inhibition (Lineweaver-Burk and secondary plots); assay type: biochemical
Experimental: as §5

T1 sequence (P56817 46-457): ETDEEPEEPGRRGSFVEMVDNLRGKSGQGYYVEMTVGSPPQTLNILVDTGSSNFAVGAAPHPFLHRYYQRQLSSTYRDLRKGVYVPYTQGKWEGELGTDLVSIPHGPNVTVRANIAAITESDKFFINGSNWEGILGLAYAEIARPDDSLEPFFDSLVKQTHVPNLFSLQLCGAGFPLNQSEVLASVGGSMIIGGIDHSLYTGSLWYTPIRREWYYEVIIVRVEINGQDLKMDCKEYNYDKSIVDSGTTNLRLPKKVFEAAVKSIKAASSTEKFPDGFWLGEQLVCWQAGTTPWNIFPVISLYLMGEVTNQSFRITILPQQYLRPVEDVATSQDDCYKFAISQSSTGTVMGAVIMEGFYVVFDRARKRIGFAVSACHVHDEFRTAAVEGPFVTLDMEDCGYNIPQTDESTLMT

## O=c1oc2c(O)c(O)cc3c(=O)oc4c(O)c(O)cc1c4c23 [Compound 5, ellagic acid]
BACE-1
  remaining activity at 10 µM: 59.1 ± 0.3%
BChE (equine serum)
  IC50: > 40 µM
BChE (equine serum); read-out: Residual activity at 10 µM (%) BChE
  remaining activity at 10 µM: 96.9 ± 5.8%
[1]
  IC50: 41.7 ± 2.4 µM
[1]; IC50 for BChE divided by IC50 for AChE
  SI: > 1.0
[1]; read-out: Residual activity at 10 µM (%) AChE
  remaining activity at 10 µM: 81.5 ± 4.2%
[2]
  HL-60 cell viability: negligible effects; also recorded: non-toxic or slightly toxic
[3]
  MDCK cell viability: slightly or non-toxic; also recorded: negligible effects; also recorded: non-toxic or slightly toxic
MAO-B [4]
  IC50: 0.412 µM
AChE [5]
  IC50: 133 µM
AChE [6]
  Ki: 9.43 ± 2.51 µM
AChE [6]; LB plots
  Mode of AChE inhibition: competitively; also recorded: competitive but partly mixed; also recorded: competitive but partially mixed
AChE [7]
  Reversibility of AChE inhibition: reversibly; also recorded: reversible inhibitors
MAO-B [8]
  IC50: 9.21 ± 0.16 µM
MAO-B [8]; 10 µM
  inhibition at 10 µM: > 50%
MAO-B [8]; read-out: Residual activity at 10 µM (%) MAO-B
  remaining activity at 10 µM: 45.4 ± 4.1%
Recombinant human MAO-A
  IC50: > 40 µM
Recombinant human MAO-A; read-out: Residual activity at 10 µM (%) MAO-A
  remaining activity at 10 µM: 99.5 ± 0.7%
MAO-B [9]
  Reversibility of MAO-B inhibition: reversible inhibitors
MAO-B [10]
  Ki: 7.51 ± 1.86 µM
MAO-B [10]; LB plots
  Mode of MAO-B inhibition: competitive
